{"source": "patent US11291660B2", "about": "“Method of treating heart failure with preserved ejection fraction by administering milrinone” (Baker Heart and Diabetes Institute, priority 2014, dated 2022)", "key": {"[1]": {"test_system": "HFpEF patients", "conditions": "cited from earlier work"}, "[2]": {"assay": "Saturated solubility of Milrinone in different buffers", "assay_type": "physicochemical", "conditions": "pH 1.2 to 7.4 buffers", "description": "Aim: To perform the saturated solubility of Milrinone in different buffers.\n1. pH 1.2—Hydrochloric Acid Buffer\n3. pH 6.8—Phosphate Buffer\n4. pH 7.4—Phosphate Buffer.\n• 1. 2 mL buffer solution is placed into a 8 mL USP Type I clear glass vial (with screw cap and PTFE septa) • 2. 10 mg of Milrinone is added in each vial and the vial is shaken to dissolve the compound. • 3. The addition of Milrinone is continued till the formation of saturated solution. • 4. The pH of the saturated solution is measured after the addition of Milrinone. • 5. If there is any difference in pH more than 0.1 units is observed when compared to the initial pH, the pH was adjusted with acid or base respectively to bring it to the initial pH. • 6. The vials are closed with screw cap and kept for mixing using rotary tube shaker for 24 h. Note: The vials are observed at frequent intervals and if the solution is clear, further amount of Milrinone is added to make a saturated solution."}, "[3]": {"test_system": "HFpEF patients", "conditions": "cited from earlier work", "remark": "listed apart in the source"}, "[4]": {"test_system": "HFpEF", "conditions": "in vivo; cited from earlier work"}, "[5]": {"test_system": "HFpEF patients", "conditions": "cited from earlier work", "remark": "listed apart in the source"}}, "data": [{"compound": "CCCc1nn(C)c2c(=O)[nH]c(-c3cc(S(=O)(=O)N4CCN(C)CC4)ccc3OCC)nc12", "note": "[sildenafil]", "values": [{"measurement": "Exercise capacity or clinical status", "setting": "[1]", "value": "did not result in improvement"}]}, {"compound": "Cc1[nH]c(=O)c(C#N)cc1-c1ccncc1", "note": "[Milrinone, 1,2-dihydro-3-cyano-6-methyl-5-(4-pyridinyl)-2(1H)-pyridinone]", "values": [{"measurement": "Solubility as a function of pH (in words)", "setting": "[2]", "value": "highly soluble in acidic pH"}]}, {"compound": "CC(=O)S[C@@H]1CC2=CC(=O)CC[C@]2(C)[C@H]2CC[C@@]3(C)[C@@H](CC[C@@]34CCC(=O)O4)[C@H]12", "note": "[spironolactone]", "values": [{"measurement": "Left ventricular diastolic function", "setting": "[3]", "value": "improved left ventricular diastolic function"}, {"measurement": "Maximal exercise capacity, patient symptoms or quality of life", "setting": "[3]", "value": "did not affect"}]}, {"compound": "C[C@H]1O[C@@H](O[C@H]2[C@@H](O)C[C@H](O[C@H]3[C@@H](O)C[C@H](O[C@H]4CC[C@@]5(C)[C@H](CC[C@@H]6[C@@H]5C[C@@H](O)[C@]5(C)[C@@H](C7=CC(=O)OC7)CC[C@]65O)C4)O[C@@H]3C)O[C@@H]2C)C[C@H](O)[C@@H]1O", "note": "[digoxin]", "values": [{"measurement": "Benefit as therapy for HFpEF", "setting": "[4]", "value": "little or no conclusive benefit"}]}, {"compound": "COc1ccccc1OCC(O)CN1CCN(CC(=O)Nc2c(C)cccc2C)CC1", "note": "(stereo not drawn) [Ranolazine]", "values": [{"measurement": "Echocardiographic parameters or exercise performance", "setting": "[5]", "value": "did not result in a change"}]}]}
